The molecules below were run against T1, glutathione S-transferase (GST)-fused full-length human Syk protein (Homo sapiens, UniProt P43405) (assay: Syk enzyme assay). Details: Syk enzyme assay, Test Example 1; read-out: IC50 of Syk-inhibitory activity.
T1 construct: (GST)-fused full-length human Syk protein; GST (glutathione S-transferase); purchased Carna Biosciences
Type: biochemical
How it was run: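 GST-tagged full-length human Syk (baculovirus) preincubated with compound 15 min at room temperature (pH 7.0, 10 mM MgCl2), then reacted 40 min with 0.4 μM biotinylated peptide substrate and 27 μM ATP (final). Phosphorylation read by HTRF (615/665 nm) after EDTA stop; IC50 reported.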

Compound | IC50 [µM]
CC(C)COCCOc1nccc2cc(Nc3nc(N[C@@H]4CCCC[C@@H]4N)c(F)cc3C(N)=O)ccc12 (relative stereo) [Example 004-170, 6-(cis-2-aminocyclohexylamino)-5-fluoro-2-((1-(2-isobutoxyethoxy)isoquinolin-6-yl)amino)-nicotinamide] | < 0.01
CCCOc1cnc2cc(Nc3nc(N[C@@H]4CCCC[C@@H]4N)c(F)cc3C(N)=O)ccc2n1 (relative stereo) [Example 004-177, 6-(cis-2-aminocyclohexylamino)-5-fluoro-2-((2-propoxyquinoxalin-6-yl)amino)nicotinamide] | 0.01 to 0.05
COCCOc1cnc2cc(Nc3nc(N[C@@H]4CCCC[C@@H]4N)c(F)cc3C(N)=O)ccc2n1 (relative stereo) [Example 004-178, 6-(cis-2-aminocyclohexylamino)-5-fluoro-2-((2-(2-methoxyethoxy)quinoxalin-6-yl)amino)-nicotinamide] | 0.01 to 0.05
CC(C)COc1ccccc1-c1cncc(Nc2nc(N[C@@H]3CCCC[C@@H]3N)c(F)cc2C(N)=O)c1 (relative stereo) [Example 004-183, 6-(cis-2-aminocyclohexylamino)-5-fluoro-2-((5-(2-isobutoxyphenyl)pyridin-3-yl)amino)-nicotinamide] | 0.05 to 0.1
NC(=O)c1cc(F)c(N[C@@H]2CCCC[C@@H]2N)nc1Nc1cncc(COCc2ccccc2)c1 (relative stereo) [Example 004-189, 6-(cis-2-aminocyclohexylamino)-2-((5-((benzyloxy)methyl)pyridin-3-yl)amino)-5-fluoronicotinamide] | 0.05 to 0.1
NC(=O)c1cc(F)c(N[C@@H]2CCCC[C@@H]2N)nc1Nc1ccnc(COCc2ccccc2)c1 (relative stereo) [Example 004-192, 6-(cis-2-aminocyclohexylamino)-2-((2-((benzyloxy)methyl)pyridin-4-yl)amino)-5-fluoronicotinamide] | 0.05 to 0.1
NC(=O)c1cc(F)c(N[C@@H]2CCCC[C@@H]2N)nc1Nc1cncc(CO)c1 (relative stereo) [Example 004-193, 6-(cis-2-aminocyclohexylamino)-5-fluoro-2-((5-(hydroxymethyl)pyridin-3-yl)amino)nicotinamide] | 0.05 to 0.1
NC(=O)c1cc(F)c(N[C@@H]2CCCC[C@@H]2N)nc1Nc1ccnc(CO)c1 (relative stereo) [Example 004-194, 6-(cis-2-aminocyclohexylamino)-5-fluoro-2-((2-(hydroxymethyl)pyridin-4-yl)amino)nicotinamide] | 0.01 to 0.05
NC(=O)c1cc(F)c(N[C@@H]2CCCC[C@@H]2N)nc1Nc1ccc2nc(-n3nccn3)ccc2c1 (relative stereo) [Example 004-202, 2-((2-(2H-1,2,3-triazol-2-yl)quinolin-6-yl)amino)-6-(cis-2-aminocyclohexylamino)-5-fluoronicotinamide] | < 0.01
NC(=O)c1cc(F)c(N[C@@H]2CCCC[C@@H]2N)nc1Nc1ccc2nc(-n3cccn3)ccc2c1 (relative stereo) [Example 004-203, 2-((2-(1H-pyrazol-1-yl)quinolin-6-yl)amino)-6-(cis-2-aminocyclohexylamino)-5-fluoronicotinamide] | < 0.01
NC(=O)c1cc(F)c(N[C@@H]2CCCC[C@@H]2N)nc1Nc1cncc(-c2cccc(F)c2F)c1 (relative stereo) [Example 004-204, 6-(cis-2-aminocyclohexylamino)-2-((5-(2,3-difluorophenyl)pyridin-3-yl)amino)-5-fluoronicotinamide] | < 0.01
NC(=O)c1cc(F)c(N[C@@H]2CCCC[C@@H]2N)nc1Nc1cncc(-c2cc(F)ccc2F)c1 (relative stereo) [Example 004-205, 6-(cis-2-aminocyclohexylamino)-2-((5-(2,5-difluorophenyl)pyridin-3-yl)amino)-5-fluoronicotinamide] | < 0.01
NC(=O)c1cc(F)c(N[C@@H]2CCCC[C@@H]2N)nc1Nc1cncc(-c2cccc(Cl)c2F)c1 (relative stereo) [Example 004-206, 6-(cis-2-aminocyclohexylamino)-2-((5-(3-chloro-2-fluorophenyl)pyridin-3-yl)amino)-5-fluoronicotinamide] | < 0.01
NC(=O)c1cc(F)c(N[C@@H]2CCCC[C@@H]2N)nc1Nc1cncc(-c2cc(Cl)ccc2F)c1 (relative stereo) [Example 004-207, 6-(cis-2-aminocyclohexylamino)-2-((5-(5-chloro-2-fluorophenyl)pyridin-3-yl)amino)-5-fluoronicotinamide] | < 0.01
NC(=O)c1cc(F)c(N[C@@H]2CCCC[C@@H]2N)nc1Nc1ccc2nc(-n3cccn3)cnc2c1 (relative stereo) [Example 004-208, 2-((2-(1H-pyrazol-1-yl)quinoxalin-6-yl)amino)-6-(cis-2-aminocyclohexylamino)-5-fluoronicotinamide] | < 0.01
NC(=O)c1cc(F)c(N[C@@H]2CCCC[C@@H]2N)nc1Nc1cnc2cc(-n3nccn3)ccc2c1 (relative stereo) [Example 004-209, 2-((7-(2H-1,2,3-triazol-2-yl)quinolin-3-yl)amino)-6-(cis-2-aminocyclohexylamino)-5-fluoronicotinamide] | < 0.01
NC(=O)c1cc(F)c(N[C@@H]2CCCC[C@@H]2N)nc1Nc1cnc2cc(-n3cccn3)ccc2c1 (relative stereo) [Example 004-210, 2-((7-(1H-pyrazol-1-yl)quinolin-3-yl)amino)-6-(cis-2-aminocyclohexylamino)-5-fluoronicotinamide] | < 0.01
NC(=O)c1cc(F)c(N[C@@H]2CCCC[C@@H]2N)nc1Nc1cncc(-n2ccccc2=O)c1 (relative stereo) [Example 004-211, 6-(cis-2-aminocyclohexylamino)-5-fluoro-2-((2-oxo-2H-[1,3′-bipyridin]-5′-yl)amino)nicotinamide] | 0.1 to 1
NC(=O)c1cc(F)c(N[C@@H]2CCCC[C@@H]2N)nc1Nc1cnc(N2CCOCC2)c(F)c1 (relative stereo) [Example 004-216, 6-(cis-2-aminocyclohexylamino)-5-fluoro-2-((5-fluoro-6-morpholinopyridin-3-yl)amino)nicotinamide] | 0.01 to 0.05
NC(=O)c1cc(F)c(N[C@@H]2CCCC[C@@H]2N)nc1Nc1cncc(-c2cccc(N3CCOCC3)c2)c1 (relative stereo) [Example 004-221, 6-(cis-2-aminocyclohexylamino)-5-fluoro-2-((5-(3-morpholinophenyl)pyridin-3-yl)amino)nicotinamide] | < 0.01
NC(=O)c1cc(F)c(N[C@@H]2CCCC[C@@H]2N)nc1Nc1cncc(-c2cccc(N3CCCC3=O)c2)c1 (relative stereo) [Example 004-225, 6-(cis-2-aminocyclohexylamino)-5-fluoro-2-((5-(3-(2-oxopyrrolidin-1-yl)phenyl)pyridin-3-yl)amino)nicotinamide] | 0.01 to 0.05

Further lines, results first:

IC50 [µM] | Compound
< 0.01 | NC(=O)c1cc(F)c(N[C@@H]2CCCC[C@@H]2N)nc1Nc1ccc2c(OCC3CCCO3)nccc2c1 (relative stereo) [Example 004-171, 6-(cis-2-aminocyclohexylamino)-5-fluoro-2-((1-((tetrahydrofuran-2-yl)-methoxy)isoquinolin-6-yl)amino)nicotinamide]
< 0.01 | CCOc1ccc2cc(Nc3nc(N[C@@H]4CCCC[C@@H]4N)c(F)cc3C(N)=O)cnc2c1 (relative stereo) [Example 004-173, 6-(cis-2-aminocyclohexylamino)-2-((7-ethoxyquinolin-3-yl)amino)-5-fluoronicotinamide]
< 0.01 | CCCOc1ccc2cc(Nc3nc(N[C@@H]4CCCC[C@@H]4N)c(F)cc3C(N)=O)cnc2c1 (relative stereo) [Example 004-174, 6-(cis-2-aminocyclohexylamino)-5-fluoro-2-((7-propoxyquinolin-3-yl)amino)nicotinamide]
< 0.01 | CCOc1cnc2cc(Nc3nc(N[C@@H]4CCCC[C@@H]4N)c(F)cc3C(N)=O)ccc2n1 (relative stereo) [Example 004-176, 6-(cis-2-aminocyclohexylamino)-2-((2-ethoxyquinoxalin-6-yl)amino)-5-fluoronicotinamide]
< 0.01 | COCCOCCOc1cnc2cc(Nc3nc(N[C@@H]4CCCC[C@@H]4N)c(F)cc3C(N)=O)ccc2n1 (relative stereo) [Example 004-179, 6-(cis-2-aminocyclohexylamino)-5-fluoro-2-((2-(2-(2-methoxyethoxy)ethoxy)quinoxalin-6-yl)amino)nicotinamide]
< 0.01 | CCOc1ccccc1-c1cncc(Nc2nc(N[C@@H]3CCCC[C@@H]3N)c(F)cc2C(N)=O)c1 (relative stereo) [Example 004-182, 6-(cis-2-aminocyclohexylamino)-2-((5-(2-ethoxyphenyl)pyridin-3-yl)amino)-5-fluoronicotinamide]
< 0.01 | COCCOc1ccccc1-c1cncc(Nc2nc(N[C@@H]3CCCC[C@@H]3N)c(F)cc2C(N)=O)c1 (relative stereo) [Example 004-185, 6-(cis-2-aminocyclohexylamino)-5-fluoro-2-((5-(2-(2-methoxyethoxy)phenyl)pyridin-3-yl)amino)nicotinamide]
< 0.01 | NC(=O)c1cc(F)c(N[C@@H]2CCCC[C@@H]2N)nc1Nc1cncc(-c2ccccc2O)c1 (relative stereo) [Example 004-186, 6-(cis-2-aminocyclohexylamino)-5-fluoro-2-((5-(2-hydroxyphenyl)pyridin-3-yl)amino)nicotinamide]
< 0.01 | NC(=O)c1cc(F)c(N[C@@H]2CCCC[C@@H]2N)nc1Nc1ccc2nc(OCCCN3CCCC3=O)ccc2c1 (relative stereo) [Example 004-200, 6-(cis-2-aminocyclohexylamino)-5-fluoro-2-((2-(3-(2-oxopyrrolidin-1-yl)propoxy)quinolin-6-yl)amino)nicotinamide]

Reference: patent publication US8895585B2, “Nicotinamide derivative or salt thereof” (FUJIFILM Corporation, priority 2010, dated 2014)
